From patent US20230111853A1, “COMPOUNDS MODULATING PROTEIN RECRUITMENT AND/OR DEGRADATION” (Orionis Biosciences, Inc., priority 2019, published 2023)

tested on: IKZF1, ASS1 and SALL4 recruitment to CRBN; assay: Recruitment assessment: recruitment of any tested substrate from among IKZF1, ASS1 and SALL4; type: cell-based; conditions: any tested substrate at any tested compound concentration
Procedure: In this experimental set-up, cells were transfected with a construct encoding a CRBN-fusion protein and another one encoding a substrate-fusion protein. Test compound activity was assessed with increasing concentrations of test compounds (dose-response studies) to monitor the ability to promote CRBN-ligand-induced protein interaction.
Full size proteins were fused for each of the target proteins tested, except in the case of IKZF1 where isoform 7 was used. For the study, the following were used: IKZF1 recruitment: pSEL-CRBN+pMG1-IKZF1(isoform 7); ASS1 recruitment: pSEL-CRBN+pMG1-ASS1. SALL4 recruitment: pSEL-SALL4+pMG1-CRBN. […] Luciferase activity was measured 24 hours after test compound treatment using the Luciferase Assay System kit (PROMEGA, Madison, Wis.) with an Ensight plate reader (PERKIN ELMER LIFE SCIENCES, Waltham, Mass.). Data points depicted fold induction of the average luciferase activity of triplicate samples from EPO+test compound treated cells versus EPO only treated cells. Error bars represent standard deviations. Curves were fit using 4-parameter nonlinear regression in […] PRISM software.

Row | SMILES | Recruitment Assessment
1 | Cc1cc(Nc2ccc3c(c2)C(=O)N(C2CCC(=O)NC2=O)C3)ncn1 (stereo not shown) [C80384, 3-[6-[(6-methylpyrimidin-4-yl)amino]-1-oxo-isoindolin-2-yl] piperidine-2,6-dione] | FALSE
2 | O=C1CCC(N2Cc3ccc(Nc4[nH]cnc5nccc4-5)cc3C2=O)C(=O)N1 (stereo not shown) [C80385, 3-[1-oxo-6-(3H-pyrrolo[2,3-d]pyrimidin-4-ylamino)isoindolin-2-yl] piperidine-2,6-dione] | FALSE
3 | O=C1CCC(N2Cc3ccc(Nc4cnc5ccccc5n4)cc3C2=O)C(=O)N1 (stereo not shown) [C80386, 3-[1-oxo-6-(quinoxalin-2-ylamino)isoindolin-2-yl]piperidine-2,6-dione] | FALSE
4 | Cn1ccnc(Nc2ccc3c(c2)C(=O)N(C2CCC(=O)NC2=O)C3)c1=O (stereo not shown) [C80387, 3-[6-[(4-methyl-3-oxo-pyrazin-2-yl)amino]-1-oxo-isoindolin-2-yl] piperidine-2,6-dione] | FALSE
5 | N#Cc1ccc(Nc2ccc3c(c2)C(=O)N(C2CCC(=O)NC2=O)C3)nn1 (stereo not shown) [C80389, 6-[[2-(2,6-dioxo-3-piperidyl)-3-oxo-isoindolin-5-yl]amino]pyridazine-3-carbonitrile] | FALSE
6 | Cc1cc2[nH]cnc(Nc3ccc4c(c3)C(=O)N(C3CCC(=O)NC3=O)C4)c-2n1 (stereo not shown) [C80390, 3-[6-[(6-methylpyrrolo[3,2-d]pyrimidin-4-yl)ammo]-1-oxo-isoindolin-2-yl]piperidine-2,6-dione] | TRUE
7 | O=C1CCC(N2Cc3ccc(NC(=O)c4ccc5ccccc5n4)cc3C2=O)C(=O)N1 (stereo not shown) [C80392, N-[2-(2,6-dioxo-3-piperidyl)-3-oxo-isoindolin-5-yl]quinoline-2-carboxamide] | FALSE
8 | O=C1CCC(N2Cc3ccc(NC(=O)c4ccc5cnccc5n4)cc3C2=O)C(=O)N1 (stereo not shown) [C80393, N-[2-(2,6-dioxo-3-piperidyl)-3-oxo-isoindolin-5-yl]-1,6-naphthyridine-2-carboxamide] | FALSE
9 | O=C1CCC(N2Cc3ccc(NC(=O)C4=C5C=CN=C5N=CC4)cc3C2=O)C(=O)N1 (stereo not shown) [C80395, N-[2-(2,6-dioxo-3-piperidyl)-3-oxo-isoindolin-5-yl]-5H-pyrrolo [2,3-b]pyridine-4-carboxamide] | TRUE
10 | NC(=O)CNc1ccc2c(c1)C(=O)N(C1CCC(=O)NC1=O)C2 (stereo not shown) [C84961, 2-[[2-(2,6-dioxo-3-piperidyl)-3-oxo-isoindolin-5-yl]amino]acetamide] | FALSE
11 | O=C1CCC(N2Cc3ccc(NCC(=O)NC4CC4)cc3C2=O)C(=O)N1 (stereo not shown) [C84963, N-cyclopropyl-2-[[2-(2,6-dioxo-3-piperidyl)-3-oxo-isoindolin-5-yl]amino]acetamide] | FALSE
12 | CN(C)C(=O)CNc1ccc2c(c1)C(=O)N(C1CCC(=O)NC1=O)C2 (stereo not shown) [C84964, 2-[[2-(2,6-dioxo-3-piperidyl)-3-oxo-isoindolin-5-yl]amino]-N,N-dimethyl-acetamide] | FALSE
13 | O=C(CNc1ccc2c(c1)C(=O)N(C1CCC(=O)NC1=O)C2)NCc1ccccc1 (stereo not shown) [C84966, N-benzyl-2-[[2-(2,6-dioxo-3-piperidyl)-3-oxo-isoindolin-5-yl]amino]acetaimde] | FALSE
14 | CC(=O)NCC(=O)Nc1ccc2c(c1)C(=O)N(C1CCC(=O)NC1=O)C2 (stereo not shown) [C84967, 2-acetamido-N-[2-(2,6-dioxo-3-piperidyl)-3-oxo-isoindolin-5-yl]acetamide] | TRUE
15 | O=C1CCC(N2Cc3ccc(N4CCNC4=O)cc3C2=O)C(=O)N1 (stereo not shown) [C84971, 3-[1-oxo-6-(2-oxoimidazolidin-1-yl)isoindolin-2-yl]piperidine-2,6-dione] | FALSE
16 | O=C1CCC(N2Cc3ccc(NCC(=O)N4CCc5ccccc5C4)cc3C2=O)C(=O)N1 (stereo not shown) [C95329, 3-[6-[[2-(3,4-dihydro-1H-isoquinolin-2-yl)-2-oxo-ethyl]amino]-1-oxo-isoindolin-2-yl]piperidine-2,6-] | FALSE
